# Source: patent publication US20140296257A1, “High-Loading Water-Soluable Carrier-Linked Prodrugs” (Ascendis Pharma A/S, priority 2011, published 2014)
# Details: pH 7.4 buffer, 37° C., released paliperidone plotted against time
# Experimental: Sample was incubated at 37° C. At various time points aliquots were analyzed by UPLC and the amount of released paliperidone was plotted against time. […] Curve fitting software was used to determine half life time of drug release from the respective conjugate.
substance,measurement,value
4-arm PEG 20 kDa-octapaliperidone [Conjugate 5],Drug release kinetics,first order kinetics
